From US20100298141A1, “SUBSTITUTED PYRIDINE N-OXIDE HERBICIDES” (E. I. DU PONT DE NEMOURS AND COMPANY, priority 2007, published 2010)

How the values were obtained:
[1] = system: annual bluegrass; assay: Test D preemergence test; format: in vivo, Poa annua; settings: scale 0 to 100
Excerpt: (§1) Seeds of plant species selected from annual bluegrass (Poa annua), blackgrass (Alopecurus myosuroides), downy bromegrass (Bromus tectorum), field violet (Viola arvensis), green foxtail (Setaria viridis), Italian ryegrass (Lolium multiflorum), littleseed canarygrass (Phalaris minor), spring wheat (Triticum aestivum), wild oat (Avena fatua), […]), winter barley (Hordeum vulgare), and winter wheat (Triticum aestivum) were planted and treated preemergence with test chemicals formulated in a non-phytotoxic solvent mixture which included a surfactant. […] A dash (-) response means no test result.

[2] = system: soybean; assay: Test G preemergence test; format: in vivo, Glycine max; settings: scale 0 to 100
[3] = system: blackgrass; assay: Test D preemergence test; format: in vivo, Alopecurus myosuroides; settings: scale 0 to 100
Excerpt: as §1

[4] = system: yellow nutsedge; assay: Test G preemergence test; format: in vivo, Cyperus esculentus; settings: scale 0 to 100
[5] = system: goosegrass; assay: Test G preemergence test; format: in vivo, Eleusine indica; settings: scale 0 to 100
[6] = system: itchgrass; assay: Test G preemergence test; format: in vivo, Rottboellia cochinchinensis; settings: scale 0 to 100
[7] = system: corn; assay: Test G preemergence test; format: in vivo, Zea mays; settings: scale 0 to 100
[8] = system: cotton; assay: Test G preemergence test; format: in vivo, Gossypium hirsutum; settings: scale 0 to 100
[9] = system: millet; assay: Test G preemergence test; format: in vivo, Panicum miliaceum; settings: scale 0 to 100
[10] = system: sorghum; assay: Test G preemergence test; format: in vivo, Sorghum vulgare; settings: scale 0 to 100
[11] = system: spring wheat; assay: Test D preemergence test; format: in vivo, Triticum aestivum; settings: scale 0 to 100
Excerpt: as §1

[12] = system: winter wheat; assay: Test D preemergence test; format: in vivo, Triticum aestivum; settings: scale 0 to 100
Excerpt: as §1

[13] = system: green foxtail; assay: Test D preemergence test; format: in vivo, Setaria viridis; settings: scale 0 to 100
Excerpt: as §1

[14] = system: duck salad; assay: Test B flooded paddy test; format: in vivo, Heteranthera limosa; settings: Flood, 250 g ai/ha, 13 to 15 days; scale 0 to 100, 0 no effect, 100 complete control
Excerpt: (§2) At time of treatment, test pots were flooded to 3 cm above the soil surface, treated by application of test compounds directly to the paddy water, and then maintained at that water depth for the duration of the test. Treated plants and controls were maintained in a greenhouse for 13 to 15 days, after which time all species were compared to controls and visually evaluated. […] A dash (-) response means no test result.

[15] = system: barnyardgrass; assay: Test G preemergence test; format: in vivo, Echinochloa crus-galli; settings: scale 0 to 100
[16] = system: wild oat; assay: Test D preemergence test; format: in vivo, Avena fatua; settings: scale 0 to 100
Excerpt: as §1

[17] = system: field sandbur; assay: Test G preemergence test; format: in vivo, Cenchrus incertus; settings: scale 0 to 100
[18] = system: eastern black nightshade; assay: Test G preemergence test; format: in vivo, Solanum ptycanthum; settings: scale 0 to 100
[19] = system: tall waterhemp; assay: Test G preemergence test; format: in vivo, Amaranthus tuberculatos; settings: scale 0 to 100
[20] = system: barnyardgrass; assay: Test B flooded paddy test; format: in vivo, Echinochloa crus-galli; settings: Flood, 250 g ai/ha, 13 to 15 days; scale 0 to 100, 0 no effect, 100 complete control
Excerpt: as §2

[21] = system: winter barley; assay: Test D preemergence test; format: in vivo, Hordeum vulgare
Excerpt: as §1

[22] = system: littleseed canarygrass; assay: Test D preemergence test; format: in vivo, Phalaris minor; settings: scale 0 to 100
Excerpt: as §1

[23] = system: lambsquarters; assay: Test G preemergence test; format: in vivo, Chenopodium album; settings: scale 0 to 100
[24] = system: giant foxtail; assay: Test G preemergence test; format: in vivo, Setaria faberii; settings: scale 0 to 100
[25] = system: Italian ryegrass; assay: Test D preemergence test; format: in vivo, Lolium multiflorum; settings: scale 0 to 100
Excerpt: as §1

For `Cc1cc[n+]([O-])c(S(=O)(=O)Cc2c(C(F)(F)F)nn(C)c2OC(F)F)c1` [Compound 2], the “Plant response rating, Bluegrass” value ([1]; 31 g ai/ha) was 20, the “Plant response rating, Bluegrass” value ([1]; 62 g ai/ha) was 40 and the “Plant response rating, Bluegrass” value ([1]; 125 g ai/ha) was 100. For the same compound, the “Plant response rating, Bluegrass” value ([1]; 250 g ai/ha) was 100, the “Plant response rating, Soybean” value ([2]; 31 g ai/ha) was 0 and the “Plant response rating, Soybean” value ([2]; 62 g ai/ha) was 0. The “Plant response rating, Soybean” value ([2]; 125 g ai/ha) was 0, the “Plant response rating, Soybean” value ([2]; 250 g ai/ha) was 0 and the “Plant response rating, Blackgrass” value ([3]; 31 g ai/ha) was 0. The “Plant response rating, Blackgrass” value ([3]; 62 g ai/ha) was 70, the “Plant response rating, Blackgrass” value ([3]; 125 g ai/ha) was 100 and the “Plant response rating, Blackgrass” value ([3]; 250 g ai/ha) was 100. The “Plant response rating, Nutsedge, Yellow” value ([4]; 31 g ai/ha) was 0, the “Plant response rating, Nutsedge, Yellow” value ([4]; 62 g ai/ha) was 0 and the “Plant response rating, Nutsedge, Yellow” value ([4]; 125 g ai/ha) was 35. For the same compound, the “Plant response rating, Nutsedge, Yellow” value ([4]; 250 g ai/ha) was 75, the “Plant response rating, Goosegrass” value ([5]; 31 g ai/ha) was 95 and the “Plant response rating, Goosegrass” value ([5]; 62 g ai/ha) was 100. The “Plant response rating, Goosegrass” value ([5]; 125 g ai/ha) was 100, the “Plant response rating, Goosegrass” value ([5]; 250 g ai/ha) was 100 and the “Plant response rating, Itchgrass” value ([6]; 31 g ai/ha) was 0. For the same compound, the “Plant response rating, Itchgrass” value ([6]; 62 g ai/ha) was 15, the “Plant response rating, Itchgrass” value ([6]; 125 g ai/ha) was 30 and the “Plant response rating, Itchgrass” value ([6]; 250 g ai/ha) was 50. For the same compound, the “Plant response rating, Corn” value ([7]; 31 g ai/ha) was 0, the “Plant response rating, Corn” value ([7]; 62 g ai/ha) was 0 and the “Plant response rating, Corn” value ([7]; 125 g ai/ha) was 0. The “Plant response rating, Corn” value ([7]; 250 g ai/ha) was 10, the “Plant response rating, Cotton” value ([8]; 31 g ai/ha) was 0 and the “Plant response rating, Cotton” value ([8]; 62 g ai/ha) was 0. For the same compound, the “Plant response rating, Cotton” value ([8]; 125 g ai/ha) was 0, the “Plant response rating, Cotton” value ([8]; 250 g ai/ha) was 0 and the “Plant response rating, Millet” value ([9]; 31 g ai/ha) was 0. For the same compound, the “Plant response rating, Millet” value ([9]; 62 g ai/ha) was 0, the “Plant response rating, Millet” value ([9]; 125 g ai/ha) was 75 and the “Plant response rating, Millet” value ([9]; 250 g ai/ha) was 100. For the same compound, the “Plant response rating, Sorghum” value ([10]; 31 g ai/ha) was 0, the “Plant response rating, Sorghum” value ([10]; 62 g ai/ha) was 0 and the “Plant response rating, Sorghum” value ([10]; 125 g ai/ha) was 60. For the same compound, the “Plant response rating, Sorghum” value ([10]; 250 g ai/ha) was 100, the “Plant response rating, Wheat, Spring” value ([11]; 31 g ai/ha) was 0 and the “Plant response rating, Wheat, Spring” value ([11]; 62 g ai/ha) was 0. The “Plant response rating, Wheat, Spring” value ([11]; 125 g ai/ha) was 0, the “Plant response rating, Wheat, Spring” value ([11]; 250 g ai/ha) was 15 and the “Plant response rating, Wheat, Winter” value ([12]; 31 g ai/ha) was 0. For the same compound, the “Plant response rating, Wheat, Winter” value ([12]; 62 g ai/ha) was 0, the “Plant response rating, Wheat, Winter” value ([12]; 125 g ai/ha) was 15 and the “Plant response rating, Wheat, Winter” value ([12]; 250 g ai/ha) was 25. The “Plant response rating, Foxtail, Green” value ([13]; 31 g ai/ha) was 0, the “Plant response rating, Foxtail, Green” value ([13]; 62 g ai/ha) was 30 and the “Plant response rating, Foxtail, Green” value ([13]; 125 g ai/ha) was 55. The “Plant response rating, Foxtail, Green” value ([13]; 250 g ai/ha) was 65, the “Plant response rating, Ducksalad” value [14] was 100 and the “Plant response rating, Barnyardgrass” value ([15]; 31 g ai/ha) was 15. For the same compound, the “Plant response rating, Barnyardgrass” value ([15]; 62 g ai/ha) was 100, the “Plant response rating, Barnyardgrass” value ([15]; 125 g ai/ha) was 100 and the “Plant response rating, Barnyardgrass” value ([15]; 250 g ai/ha) was 100. The “Plant response rating, Oat, Wild” value ([16]; 31 g ai/ha) was 0, the “Plant response rating, Oat, Wild” value ([16]; 62 g ai/ha) was 0 and the “Plant response rating, Oat, Wild” value ([16]; 125 g ai/ha) was 0. The “Plant response rating, Oat, Wild” value ([16]; 250 g ai/ha) was 10, the “Plant response rating, Sandbur” value ([17]; 31 g ai/ha) was 0 and the “Plant response rating, Sandbur” value ([17]; 62 g ai/ha) was 0. For the same compound, the “Plant response rating, Sandbur” value ([17]; 125 g ai/ha) was 85, the “Plant response rating, Sandbur” value ([17]; 250 g ai/ha) was 100 and the “Plant response rating, Nightshade” value ([18]; 31 g ai/ha) was 0. The “Plant response rating, Nightshade” value ([18]; 62 g ai/ha) was 40, the “Plant response rating, Nightshade” value ([18]; 125 g ai/ha) was 40 and the “Plant response rating, Nightshade” value ([18]; 250 g ai/ha) was 45. The “Plant response rating, Waterhemp” value ([19]; 31 g ai/ha) was 20, the “Plant response rating, Waterhemp” value ([19]; 62 g ai/ha) was 100 and the “Plant response rating, Waterhemp” value ([19]; 125 g ai/ha) was 100. The “Plant response rating, Waterhemp” value ([19]; 250 g ai/ha) was 100, the “Plant response rating, Barnyardgrass” value [20] was 80 and the “Plant response rating, Barley” value ([21]; Preemergence, 62 g ai/ha, scale 0 to 100) was 0. For the same compound, the “Plant response rating, Barley” value ([21]; Preemergence, 125 g ai/ha, scale 0 to 100) was 10, the “Plant response rating, Barley” value ([21]; Preemergence, 31 g ai/ha, scale 0 to 100) was 0 and the “Plant response rating, Barley” value ([21]; preemergence, 250 g ai/ha, scale 0 (no effect) to 100 (complete control)) was 10. The “Plant response rating, Canarygrass” value ([22]; 31 g ai/ha) was 0, the “Plant response rating, Canarygrass” value ([22]; 62 g ai/ha) was 60 and the “Plant response rating, Canarygrass” value ([22]; 125 g ai/ha) was 100. For the same compound, the “Plant response rating, Canarygrass” value ([22]; 250 g ai/ha) was 100, the “Plant response rating, Lambsquarters” value ([23]; 31 g ai/ha) was 0 and the “Plant response rating, Lambsquarters” value ([23]; 62 g ai/ha) was 0. For the same compound, the “Plant response rating, Lambsquarters” value ([23]; 125 g ai/ha) was 10, the “Plant response rating, Lambsquarters” value ([23]; 250 g ai/ha) was 15 and the “Plant response rating, Foxtail, Giant” value ([24]; 31 g ai/ha) was 0. The “Plant response rating, Foxtail, Giant” value ([24]; 62 g ai/ha) was 35, the “Plant response rating, Foxtail, Giant” value ([24]; 125 g ai/ha) was 100 and the “Plant response rating, Foxtail, Giant” value ([24]; 250 g ai/ha) was 100. For the same compound, the “Plant response rating, Ryegrass, Italian” value ([25]; 31 g ai/ha) was 0, the “Plant response rating, Ryegrass, Italian” value ([25]; 62 g ai/ha) was 0 and the “Plant response rating, Ryegrass, Italian” value ([25]; 125 g ai/ha) was 30. The “Plant response rating, Ryegrass, Italian” value ([25]; 250 g ai/ha) was 50.
